Measurements from US20180244653A1, “SELECTIVE ALPHA-7 NICOTINIC RECEPTOR AGONISTS AND METHODS FOR MAKING AND USING THEM” (THE REGENTS OF THE UNIVERSITY OF CALIFORNIA, priority 2015, published 2018).
Values joined by “and” are separate entries in the source; they are usually repeats but may differ in a detail not shown here. Identical values can stand only once. “Also recorded” adds a separate entry of the source. Like-named read-outs stand apart in the source and are kept apart here.

Tests used:
[1] = tested on: physiologically induced amnesia mice; test: ORT with 24 h time delay (natural memory loss); format: in vivo; settings: i.p.; for Discrimination index / cognition enhancement, ORT time delay vs control group: 24 h delay; for Minimum effective dose, RT^§: physiologically induced amnesia (memory retention) model, ICR mice
Procedure: Both compounds were further evaluated on a physiologic amnesic model by using ORT with 24 h time delay to induce natural memory loss in mice. The appropriate time delay causing amnesia was initially selected by varying delay times (24, 48, and 72 h) between sample and test phase that have identical and different objects, respectively. […] Therefore, 24 h was used as the time delay between sample and test phase.
FIG. 27 illustrates exploration time to familiar (F) and novel (N) objects in test phase of ORT following a time delay. Each mouse was allowed to explore an open field apparatus for 5 min in a habituation phase one day before a sample phase. In the test day, vehicle (SH) and test compounds IND8, QND8 and PNU were injected 1 h before measurement of exploration time. Each mouse was allowed to explore 2 identical objects in the sample phase for 5 min. On the next day (24 h), one of the objects was changed to a new one and the mouse was allowed to explore these objects for 5 min. The exploration time of these objects was recorded. Data are presented as means±SE, n=6-8 mice/group. **p<0.01, ***p<0.001 vs exploration time of familiar object, paired student's t-test.
The DI was calculated and compared with the control group to evaluate IND8, QND8, and PNU-282987 enhancement of cognitive function. Data are shown in FIG. 28, which illustrates discrimination index (TN−TF/TN+TF) of each compound in the test phase of ORT with time delay protocol. There was a significant difference in DI (F6,43=6.097, p<0.001, n=6-8 mice/group). **p<0.01, ***p<0.001 vs vehicle group (SH), one-way ANOVA with Fisher's LSD post hoc comparison.
The apparatus used in this experiment was the same as ORT test. This experiment was divided into 2 parts directed to dose finding and establishing mechanism of action.
For dose finding protocol, the mice were randomly divided into different treatment groups, a control group receiving a vehicle and tested groups receiving PNU-282987 at 3, 10 mg/kg, and IND8, QND8 for 10, 25 μmol/kg, single dose. They were allowed to freely explore the open field apparatus for 5 min for habituation in a day before the experiment (day 1). On the test day (day 2), the test compound was injected 1 h before the sample phase. In this phase, mice were placed in the apparatus to explore two identical objects. On the next day (day 3), one object was changed to a new one and mice were allowed to explore these objects for 5 min in the test phase. For proving cognitive enhancement mediated through α7-nAChRs, the protocol was the same as mentioned above except MLA (3 mg/kg), selective α7-nAChR antagonist, was injected 5 min before test compounds in the sample phase (day 2) to block the cognitive enhancement effect from test compounds. The dose of test compounds is selected from the effective dose from the former experiment. The exploration time of each object was recorded if the nose of mouse came within 3 cm or touched the objects. The discrimination index (DI) was calculated by using (TN−TF)/(TN+TF); TN and TF represented exploration time of new and familiar objects, respectively.

α4β2-nAChRs [2] = molecular target: T1, α4β2-nAChRs (Homo sapiens, UniProt P17787+P43681); test: FRET functional assay (agonist/antagonist) using LGIC-CNiFERs; format: cell-based; settings: for EC50: read-out: EC50 ± SD, α4β2; for Functional properties at α4β2-nAChRs (agonist / antagonist, type): functional screening and characterization
T1 construct: expressed in transfected cells; host or cells: HEKtsA201 cells co-expressing TN-XXL

α7-nAChRs = molecular target: T2, α7-nAChRs (Homo sapiens, UniProt P36544); test: as above; format: cell-based
T2 construct: expressed in transfected cells; host or cells: HEKtsA201 cells co-expressing TN-XXL

α4β2-nAChRs [3] = molecular target: T1, α4β2-nAChRs; test: Intact cell competitive radioligand binding assay ([3H]-(±)-epibatidine, SPA), LGIC-CNiFERs
[4] = >10 = did not pass initial screen
[5] = in presence of 10 μM PNU-120596, * partial agonist, >10 = did not pass initial screen, read-out: Agonist EC50 ± SD, α7
[6] = >10 = did not pass initial screen at 10 μM, read-out: Kd ± SD, α4β2

Row | Compound | Discrimination index / cognition enhancement, ORT time delay vs control group [1] | Minimum effective dose, RT^§ [1] | EC50 (α4β2-nAChRs [2]; [4]) | Kd (α4β2-nAChRs [2]; competitive antagonist (^C), >10 = did not pass initial screen, vs (±)-epibatidine, read-out: Antagonist KA ± SD, α4β2) | Functional properties at α4β2-nAChRs (agonist / antagonist, type) (α4β2-nAChRs [2]) | Fold increase in α7-nAChR agonist potency over lead compound TTIn-1 (α7-nAChRs) | EC50 (α7-nAChRs; [5]) | Initial screening for binding to α4β2-nAChRs (α4β2-nAChRs [3]; 10 μM, more than 50% radioligand displacement) | Kd (α4β2-nAChRs [3]; [6]) | Kd (α4β2-nAChRs [2]; Antagonist KA ± SD, α4β2, competitive antagonist (^C), >10 = did not pass initial screen, vs (±)-epibatidine) | EC50 (α7-nAChRs; Agonist EC50 ± SD, α7) | Kd (α4β2-nAChRs [3]) | Antagonist KA ± SD, α4β2 (α4β2-nAChRs [2]; competitive antagonist (^C), >10 = did not pass initial screen, vs (±)-epibatidine)
1 | c1cc2cc(-c3cn(C4CN5CCC4CC5)nn3)ccc2[nH]1 (stereo not shown) [IND8, 5-((Quinuclid-3-yl)-1H-1,2,3-triazol-4-yl)-1H-indole] | able to enhance cognition; also recorded: significantly higher than that of control group | 10 µmol/kg | > 10000 nM | >10000 nM | did not elicit agonist or antagonist properties | 20 fold | 30 nM and 28 nM | binds to α4β2-nAChRs | 750 nM |  |  |  | 
2 | O=C(N[C@H]1CN2CCC1CC2)c1ccc(Cl)cc1 [PNU-282987, reference compound] | able to enhance cognition; also recorded: significantly higher than that of control group | 10 µmol/kg | > 10000 nM |  |  |  |  |  |  | > 10000 nM | 110 ± 10 nM | > 10000 nM | 
3 | Oc1ccc(-c2cn(C3CN4CCC3CC4)nn2)cc1 (stereo not shown) [QND8, 3-(4-hydroxyphenyl-1,2,3-triazol-1-yl) quinuclidine] | able to enhance cognition; also recorded: significantly higher than that of control group | 10 µmol/kg |  |  | competitive antagonism | 20 fold | 40 nM and 37 nM |  | > 10000 nM |  |  |  | 6.2 ± 1.7^C μM
